Reference: ChEMBL document CHEMBL5465560, “Selectivity Literature for EUbOPEN Chemogenomic Library” (2024)

Columns and labels:
[1] = molecular target: T1, Bone morphogenetic protein receptor type-2 (Homo sapiens) (UniProt Q13873); test: Selectivity interaction (KinomeScan (DiscoverX)) EUB0001049a BMPR2; conditions: at 1 µM
T1 sequence (whole entry): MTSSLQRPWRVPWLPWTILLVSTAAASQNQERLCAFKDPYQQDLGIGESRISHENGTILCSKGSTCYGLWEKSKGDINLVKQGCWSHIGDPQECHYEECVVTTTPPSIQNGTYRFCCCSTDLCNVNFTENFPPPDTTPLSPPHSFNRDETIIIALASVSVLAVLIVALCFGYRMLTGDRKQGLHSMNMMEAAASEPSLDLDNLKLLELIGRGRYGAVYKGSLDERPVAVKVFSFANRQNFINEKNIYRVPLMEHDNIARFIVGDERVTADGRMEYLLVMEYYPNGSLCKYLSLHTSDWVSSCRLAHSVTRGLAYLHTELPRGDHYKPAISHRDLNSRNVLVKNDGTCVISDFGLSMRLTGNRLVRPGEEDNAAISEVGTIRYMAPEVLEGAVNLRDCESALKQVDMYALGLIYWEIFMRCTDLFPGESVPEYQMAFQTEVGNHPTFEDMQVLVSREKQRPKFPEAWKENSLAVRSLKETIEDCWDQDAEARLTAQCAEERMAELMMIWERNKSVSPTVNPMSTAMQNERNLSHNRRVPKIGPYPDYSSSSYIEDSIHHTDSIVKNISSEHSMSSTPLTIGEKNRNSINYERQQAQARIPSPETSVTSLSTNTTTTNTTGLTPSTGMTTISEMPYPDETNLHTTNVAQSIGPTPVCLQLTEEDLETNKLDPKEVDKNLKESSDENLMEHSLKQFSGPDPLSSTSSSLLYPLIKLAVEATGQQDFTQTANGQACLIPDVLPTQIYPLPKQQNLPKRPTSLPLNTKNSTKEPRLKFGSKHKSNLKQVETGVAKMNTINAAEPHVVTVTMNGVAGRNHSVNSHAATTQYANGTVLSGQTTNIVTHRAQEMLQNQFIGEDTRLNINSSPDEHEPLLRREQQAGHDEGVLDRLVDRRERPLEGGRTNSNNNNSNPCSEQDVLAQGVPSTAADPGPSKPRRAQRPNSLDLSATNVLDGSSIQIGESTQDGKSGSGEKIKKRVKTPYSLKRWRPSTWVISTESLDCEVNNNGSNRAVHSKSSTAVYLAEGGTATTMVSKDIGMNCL

[2] = tested on: Tyrosine-protein kinase ABL1 (Homo sapiens), P00519 [T315I]; test: Selectivity interaction (Ambit KINOMEscan and KiNATiv profiling in Jurkat cells) EUB0000090b ABL1; type: cell-based; conditions: at 1 µM
[3] = molecular target: Ribosomal protein S6 kinase alpha-1 (Homo sapiens, UniProt Q15418); test: Selectivity interaction (ActivX KiNativ screen (kinase selectivity in THP-1 cell lysates)) EUB0000639a RPS6KA1; type: subcellular; conditions: lysate, at 0.04 µM
[4] = molecular target: T2, Interleukin-1 receptor-associated kinase 3 (Homo sapiens) (UniProt Q9Y616); test: Selectivity interaction (KinomeScan (DiscoverX)) EUB0001550a IRAK3; conditions: at 1 µM
T2 sequence (whole entry): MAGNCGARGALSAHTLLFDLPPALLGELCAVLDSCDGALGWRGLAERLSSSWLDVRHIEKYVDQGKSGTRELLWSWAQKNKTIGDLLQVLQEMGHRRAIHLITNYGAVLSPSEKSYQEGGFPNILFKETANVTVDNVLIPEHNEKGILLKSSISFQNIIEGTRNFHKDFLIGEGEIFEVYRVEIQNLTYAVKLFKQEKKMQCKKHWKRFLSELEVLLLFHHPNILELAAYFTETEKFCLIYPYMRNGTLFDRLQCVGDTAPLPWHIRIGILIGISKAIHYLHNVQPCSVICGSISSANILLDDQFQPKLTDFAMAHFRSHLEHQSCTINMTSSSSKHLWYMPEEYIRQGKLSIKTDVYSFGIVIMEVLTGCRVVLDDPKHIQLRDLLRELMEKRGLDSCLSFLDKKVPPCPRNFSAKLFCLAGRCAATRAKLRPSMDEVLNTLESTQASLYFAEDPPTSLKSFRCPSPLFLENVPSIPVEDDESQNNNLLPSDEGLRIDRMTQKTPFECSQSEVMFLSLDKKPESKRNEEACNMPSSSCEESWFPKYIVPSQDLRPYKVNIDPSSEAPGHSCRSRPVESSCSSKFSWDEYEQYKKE

[5] = molecular target: Ribosomal protein S6 kinase alpha-4 (Homo sapiens) (UniProt O75676); test: Selectivity interaction (KinomeScan (DiscoverX)) EUB0000695a RPS6KA4; conditions: at 100 nM
Ribosomal protein S6 kinase alpha-4 (Homo sapiens), sequence (O75676 whole entry, looked up): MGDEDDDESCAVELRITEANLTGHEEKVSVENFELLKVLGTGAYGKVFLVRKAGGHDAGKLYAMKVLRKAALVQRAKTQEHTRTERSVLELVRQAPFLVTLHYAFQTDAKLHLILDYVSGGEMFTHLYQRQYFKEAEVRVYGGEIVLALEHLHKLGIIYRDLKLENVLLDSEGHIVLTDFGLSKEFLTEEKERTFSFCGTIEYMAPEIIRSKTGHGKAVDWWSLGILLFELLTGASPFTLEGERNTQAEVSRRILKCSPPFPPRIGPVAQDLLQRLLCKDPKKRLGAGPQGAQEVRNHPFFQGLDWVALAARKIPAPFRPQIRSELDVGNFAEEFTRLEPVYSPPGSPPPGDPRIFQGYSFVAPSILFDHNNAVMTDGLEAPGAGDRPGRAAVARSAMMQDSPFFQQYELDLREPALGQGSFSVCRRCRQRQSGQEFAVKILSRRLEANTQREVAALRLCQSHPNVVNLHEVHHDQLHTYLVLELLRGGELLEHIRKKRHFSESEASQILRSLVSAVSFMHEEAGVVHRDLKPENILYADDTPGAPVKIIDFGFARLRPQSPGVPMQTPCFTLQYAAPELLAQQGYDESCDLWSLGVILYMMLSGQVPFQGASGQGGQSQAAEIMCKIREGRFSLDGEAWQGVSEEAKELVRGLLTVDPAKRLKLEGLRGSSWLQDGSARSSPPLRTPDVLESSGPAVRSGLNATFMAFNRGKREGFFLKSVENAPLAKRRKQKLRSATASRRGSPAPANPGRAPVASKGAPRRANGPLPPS

[6] = molecular target: Calcium/calmodulin-dependent protein kinase type II subunit beta (Homo sapiens) (UniProt Q13554); conditions: at 10 µM
[7] = molecular target: Receptor tyrosine-protein kinase erbB-2 (Homo sapiens, UniProt P04626); conditions: at 10 µM
Receptor tyrosine-protein kinase erbB-2, sequence (P04626 whole entry): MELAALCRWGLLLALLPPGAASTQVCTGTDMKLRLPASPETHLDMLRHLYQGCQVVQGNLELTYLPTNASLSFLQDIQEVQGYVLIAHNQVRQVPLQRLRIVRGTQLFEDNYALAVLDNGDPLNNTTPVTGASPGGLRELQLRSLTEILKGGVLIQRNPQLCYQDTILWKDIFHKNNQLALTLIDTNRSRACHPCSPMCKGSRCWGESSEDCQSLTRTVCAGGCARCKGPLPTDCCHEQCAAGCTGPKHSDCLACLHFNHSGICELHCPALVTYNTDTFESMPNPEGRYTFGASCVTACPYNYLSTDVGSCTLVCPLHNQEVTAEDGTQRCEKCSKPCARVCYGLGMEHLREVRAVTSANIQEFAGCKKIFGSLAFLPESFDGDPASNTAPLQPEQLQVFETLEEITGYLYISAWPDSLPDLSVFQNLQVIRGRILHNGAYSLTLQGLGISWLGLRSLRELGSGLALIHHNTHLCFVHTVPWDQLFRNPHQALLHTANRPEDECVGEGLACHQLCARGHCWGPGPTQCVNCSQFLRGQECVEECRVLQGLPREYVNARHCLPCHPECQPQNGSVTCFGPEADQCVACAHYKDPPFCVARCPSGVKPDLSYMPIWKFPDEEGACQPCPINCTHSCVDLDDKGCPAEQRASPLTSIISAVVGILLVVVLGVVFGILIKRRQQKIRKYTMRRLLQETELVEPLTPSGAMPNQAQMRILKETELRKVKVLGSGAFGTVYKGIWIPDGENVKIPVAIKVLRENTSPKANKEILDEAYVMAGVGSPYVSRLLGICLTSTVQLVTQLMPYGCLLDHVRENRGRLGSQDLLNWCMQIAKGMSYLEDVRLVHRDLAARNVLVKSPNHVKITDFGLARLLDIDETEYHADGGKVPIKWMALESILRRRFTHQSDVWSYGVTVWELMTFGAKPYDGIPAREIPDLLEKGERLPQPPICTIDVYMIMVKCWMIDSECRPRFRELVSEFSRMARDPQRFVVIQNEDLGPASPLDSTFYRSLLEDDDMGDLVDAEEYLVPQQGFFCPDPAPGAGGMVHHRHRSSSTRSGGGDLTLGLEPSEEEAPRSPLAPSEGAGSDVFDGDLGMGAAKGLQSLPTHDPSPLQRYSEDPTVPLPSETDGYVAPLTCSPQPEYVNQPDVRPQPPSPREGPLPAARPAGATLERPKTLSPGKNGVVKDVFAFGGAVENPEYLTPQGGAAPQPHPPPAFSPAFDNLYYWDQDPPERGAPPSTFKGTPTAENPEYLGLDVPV

[8] = molecular target: Tyrosine-protein kinase Fes/Fps (Homo sapiens) (UniProt P07332); test: Selectivity interaction (KinomeScan (DiscoverX)) EUB0000595a FES; conditions: at 10 µM
[9] = molecular target: TRAF2 and NCK-interacting protein kinase (Homo sapiens) (UniProt Q9UKE5); test: Selectivity interaction (KinomeScan (DiscoverX)) EUB0000229b TNIK; conditions: at 10 µM
TRAF2 and NCK-interacting protein kinase (Homo sapiens), sequence (Q9UKE5 whole entry, looked up): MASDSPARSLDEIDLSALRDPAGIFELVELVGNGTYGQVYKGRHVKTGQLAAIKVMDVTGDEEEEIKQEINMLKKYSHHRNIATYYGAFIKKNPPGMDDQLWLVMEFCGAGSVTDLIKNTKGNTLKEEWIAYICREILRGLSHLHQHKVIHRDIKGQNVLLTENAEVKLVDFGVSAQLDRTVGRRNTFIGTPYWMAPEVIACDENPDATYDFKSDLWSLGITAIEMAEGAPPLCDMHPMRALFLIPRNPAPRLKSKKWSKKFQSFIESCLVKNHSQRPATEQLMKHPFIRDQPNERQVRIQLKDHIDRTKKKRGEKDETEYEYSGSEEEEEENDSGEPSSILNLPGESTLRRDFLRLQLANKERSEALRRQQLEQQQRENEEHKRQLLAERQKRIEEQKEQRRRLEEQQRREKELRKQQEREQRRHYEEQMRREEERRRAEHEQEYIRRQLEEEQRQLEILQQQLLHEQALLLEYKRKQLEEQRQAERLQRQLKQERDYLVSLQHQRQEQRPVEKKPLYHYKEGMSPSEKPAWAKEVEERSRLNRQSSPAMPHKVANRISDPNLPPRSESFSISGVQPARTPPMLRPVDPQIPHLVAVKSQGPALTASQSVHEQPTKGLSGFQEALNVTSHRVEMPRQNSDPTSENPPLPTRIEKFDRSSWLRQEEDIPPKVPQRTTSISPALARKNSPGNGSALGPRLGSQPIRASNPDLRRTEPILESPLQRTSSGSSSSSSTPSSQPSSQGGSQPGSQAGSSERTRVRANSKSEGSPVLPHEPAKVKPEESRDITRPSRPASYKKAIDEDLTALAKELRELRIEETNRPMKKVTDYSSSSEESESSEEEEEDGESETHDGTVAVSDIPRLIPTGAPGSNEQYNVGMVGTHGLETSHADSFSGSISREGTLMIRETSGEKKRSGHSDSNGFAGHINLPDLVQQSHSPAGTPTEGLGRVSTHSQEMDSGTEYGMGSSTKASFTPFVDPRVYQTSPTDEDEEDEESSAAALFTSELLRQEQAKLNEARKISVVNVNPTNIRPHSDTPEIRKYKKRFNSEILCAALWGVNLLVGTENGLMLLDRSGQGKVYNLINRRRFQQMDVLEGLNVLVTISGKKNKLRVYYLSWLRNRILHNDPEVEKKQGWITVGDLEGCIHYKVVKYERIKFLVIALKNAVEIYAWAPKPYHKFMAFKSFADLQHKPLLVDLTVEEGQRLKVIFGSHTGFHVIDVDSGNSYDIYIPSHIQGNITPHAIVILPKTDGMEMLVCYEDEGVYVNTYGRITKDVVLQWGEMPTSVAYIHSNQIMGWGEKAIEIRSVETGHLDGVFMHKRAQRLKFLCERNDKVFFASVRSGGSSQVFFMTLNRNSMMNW

[10] = molecular target: Serine/threonine-protein kinase VRK2 (Homo sapiens) (UniProt Q86Y07); test: Selectivity interaction (KinomeScan (DiscoverX)) EUB0000229b VRK2; conditions: at 10 µM
[11] = molecular target: Ribosomal protein S6 kinase alpha-4 (Homo sapiens) (UniProt O75676); test: Selectivity interaction (KinomeScan (DiscoverX)) EUB0000092b RPS6KA4; conditions: at 10 µM
[12] = molecular target: Death-associated protein kinase 2 (Homo sapiens) (UniProt Q9UIK4); test: Selectivity interaction (Upstate Kinase Profiler service (Millipore)) EUB0000056c DAPK2; conditions: at 1 µM
[13] = molecular target: Mitogen-activated protein kinase kinase kinase 1 (Homo sapiens, UniProt Q13233); test: Selectivity interaction (KinomeScan (DiscoverX)) EUB0000045b MAP3K1
Mitogen-activated protein kinase kinase kinase 1, sequence (Q13233 whole entry): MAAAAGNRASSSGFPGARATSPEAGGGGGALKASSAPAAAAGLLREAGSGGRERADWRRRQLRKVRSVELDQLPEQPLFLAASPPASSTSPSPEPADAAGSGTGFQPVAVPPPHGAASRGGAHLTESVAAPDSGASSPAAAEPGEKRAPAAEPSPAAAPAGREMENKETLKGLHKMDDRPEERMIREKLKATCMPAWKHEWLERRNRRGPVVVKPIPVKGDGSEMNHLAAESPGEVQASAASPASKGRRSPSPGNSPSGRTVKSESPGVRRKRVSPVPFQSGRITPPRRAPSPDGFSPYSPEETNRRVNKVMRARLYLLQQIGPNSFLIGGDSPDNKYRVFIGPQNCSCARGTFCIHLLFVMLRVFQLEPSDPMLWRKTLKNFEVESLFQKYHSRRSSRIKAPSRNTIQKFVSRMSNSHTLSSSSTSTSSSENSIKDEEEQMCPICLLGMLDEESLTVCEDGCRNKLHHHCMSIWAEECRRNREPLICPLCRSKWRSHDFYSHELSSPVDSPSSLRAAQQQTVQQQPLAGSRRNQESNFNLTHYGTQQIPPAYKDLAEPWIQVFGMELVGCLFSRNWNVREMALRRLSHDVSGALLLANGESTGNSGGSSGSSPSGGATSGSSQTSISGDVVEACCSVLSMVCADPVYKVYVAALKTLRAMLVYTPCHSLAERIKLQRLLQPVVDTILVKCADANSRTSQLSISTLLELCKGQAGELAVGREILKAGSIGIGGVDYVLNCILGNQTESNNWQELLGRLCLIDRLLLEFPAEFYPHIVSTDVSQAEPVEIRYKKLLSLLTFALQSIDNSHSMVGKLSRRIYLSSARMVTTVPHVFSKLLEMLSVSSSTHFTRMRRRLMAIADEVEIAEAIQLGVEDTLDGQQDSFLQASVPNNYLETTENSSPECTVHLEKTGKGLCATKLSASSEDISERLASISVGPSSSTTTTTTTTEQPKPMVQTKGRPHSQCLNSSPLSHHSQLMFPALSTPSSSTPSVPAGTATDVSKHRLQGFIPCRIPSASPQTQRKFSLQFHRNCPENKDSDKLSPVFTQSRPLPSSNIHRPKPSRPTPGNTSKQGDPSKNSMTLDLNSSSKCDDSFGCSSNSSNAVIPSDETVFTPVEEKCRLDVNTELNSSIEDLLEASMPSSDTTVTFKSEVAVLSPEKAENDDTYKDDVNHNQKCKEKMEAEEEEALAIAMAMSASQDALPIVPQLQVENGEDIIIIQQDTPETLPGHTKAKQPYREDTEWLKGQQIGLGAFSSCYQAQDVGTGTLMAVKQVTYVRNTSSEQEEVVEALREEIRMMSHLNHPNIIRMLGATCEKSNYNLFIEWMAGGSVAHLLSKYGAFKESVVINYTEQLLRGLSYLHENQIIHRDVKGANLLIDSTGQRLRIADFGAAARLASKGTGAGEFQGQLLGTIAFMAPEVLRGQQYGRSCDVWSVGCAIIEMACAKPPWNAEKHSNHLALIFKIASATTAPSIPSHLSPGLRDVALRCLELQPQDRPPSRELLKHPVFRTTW

[14] = molecular target: Serine/threonine-protein kinase 24 (Homo sapiens) (UniProt Q9Y6E0); test: Selectivity interaction (KinomeScan (DiscoverX)) EUB0000655a STK24; conditions: at 10 µM
[15] = molecular target: Serine/threonine-protein kinase PAK 2 (Homo sapiens) (UniProt Q13177); test: Selectivity interaction (SelectScreen profiling (Invitrogen)) EUB0000607a PAK2; conditions: at 2 µM

For `COc1cc(Nc2nc(C)cc(-c3cnn4nc(OC)ccc34)n2)cc(C(F)(F)F)c1`, the % of control [1] was 100%.

`CN(C)C/C=C/C(=O)Nc1ccc(C(=O)N2CCCC(Nc3ncc(Cl)c(-c4c[nH]c5ccccc45)n3)C2)cc1` (stereo unspecified) was tested, and the % of control [2] was 100%.

Work on `CC[C@@H]1[C@H](F)C(=O)N[C@@H]1COc1nccc2cc(C(N)=O)c(OC)cc12` [ZIMLOVISERTIB] yielded a % of inhibition [3] of -5.9%.

For `CN(C)CC#Cc1ccc2[nH]c3c(c2c1)-c1nc(N)ncc1CCC3`, the % of control [4] was 9.2%.

In the case of `Cc1cc(F)c(C(=O)Nc2cccc(-c3nncn3C(C)C)n2)cc1-n1cnc(C2CC2)c1`, the % of control [5] is reported as 100%.

With `CCN(CC)CCCCNc1ncc2cc(-c3cc(OC)cc(OC)c3)c(NC(=O)NC(C)(C)C)nc2n1` the % of control [6] was 100% and the % of control [7] was 100%.

For `COCC(=O)NC/C=C/c1ccc2ncnc(Nc3ccc(Oc4ccc(C)nc4)c(C)c3)c2c1` [CP-724714], the % of control [8] was 100%.

`COc1cc(N(C)c2ccnc3ccc(C(F)(F)F)cc23)cc(OC)c1OC` gave a % binding [9] of 69% and a % binding [10] of 85%.

Work on `CCC(=O)N1CCN(c2ccc(-n3c(=O)ccc4cnc5ccc(-c6cnc7ccccc7c6)cc5c43)cc2C(F)(F)F)CC1` yielded a % of control [11] of 100%.

`Cc1ccc(-c2ccc3c(ccc4sc5c(c43)NC[C@@H](C)NC5=O)n2)cn1` was tested, and the % of inhibition [12] was 30%.

With `C=CC(=O)Nc1cc(-n2c(=O)ccc3cnc4ccc(-c5ccc(NS(C)(=O)=O)cc5)cc4c32)ccc1C` the % of control ([13]; at 1 µM) was 100% and the % of control ([13]; at 10 µM) was 100%.

Compound `CN(C)CCOc1ccc(-c2nc(-c3ccncc3)c(-c3ccc4c(c3)CC/C4=N\O)[nH]2)cc1` has a % of control [14] of 100%.

`CNC(=O)Nc1ccc(-c2nc(N3CC4CCC(C3)O4)c3cnn(C4CCC5(CC4)OCCO5)c3n2)cc1` showed a % of inhibition [15] of 15%.
